From PubChem BioAssay AID1259408 (Genetic Toxicology Data Bank (GENE-TOX), 2018) come the findings set out here.

SMILES strings stand for the structures. Calls of active or inactive are those of the source. The rule behind the calls is not given here.

In this data set the test system is GENE-TOX genotoxicity assays, various organisms and cells. As to the kind of experiment: GENE-TOX mutagenicity studies. Conditions: for call: Assay Type: In vivo carcinogenicity studies.
Setting [1] is: Species/Cell Type: Salmonella typhimurium (one or more of the five standard strains: TA98, TA100, TA1535, TA1537, and TA1538), Assay Type: Histidine reverse gene mutation, Ames assay, Assay Code: SALT, Evaluation Type: Evaluation A (Pre-1980).
[2] abbreviates: Species/Cell Type: Nonhuman, Assay Type: Sister-chromatid exchange (SCE) in vitro, Assay Code: SC2+, Evaluation Type: Evaluation B (Post-1980).

`O=Cc1ccc([N+](=O)[O-])o1`: the mutagenic call is “inactive; negative” (Species/Cell Type: Escherichia coli WP2, Assay Type: Tryptophan reverse gene mutation, Assay Code: WP2-, Evaluation Type: Evaluation A (Pre-1980)) and “inactive; negative” (Species/Cell Type: Saccharomyces cerevisiae, Assay Type: Mitotic recombination or gene conversion, Assay Code: YEC-, Evaluation Type: Evaluation A (Pre-1980)).
`O=C(O)C1CCCCN1[N+](=O)[O-]` (stereo not given): the mutagenic call under setting [1] is “no conclusion”.
In the case of `CCCCCc1cc(O)c2c(c1)OC(C)(C)[C@@H]1CCC(CO)=C[C@@H]21`, the mutagenic call (Species/Cell Type: Human diploid fibroblasts, Assay Type: Unscheduled DNA synthesis (UDS) in vitro, DNA effects, Assay Code: UDH-, Evaluation Type: Evaluation A (Pre-1980)) is “inactive; negative”.
As for `CNc1ccc(Cl)cc1C(=O)c1ccccc1`, the mutagenic call under setting [1] is given as “no conclusion”.
Regarding `N#CCC(=O)N/N=C/c1c[n+]([O-])c2ccccc2[n+]1[O-]`, the mutagenic call (Species/Cell Type: Mammalian polychromatic erythrocytes, Assay Type: Micronucleus test, chromosome aberrations, Assay Code: MNT+, Evaluation Type: Evaluation B (Post-1980)) was “active; positive”.
With `CCCCCCCC(=O)Oc1c(I)cc(C#N)cc1I`, the mutagenic call (Species/Cell Type: Bacillus subtilis (H17 vs M45), Assay Type: Rec-assay, spot test, DNA effects (bacterial DNA repair), Assay Code: REWT, Evaluation Type: Evaluation A (Pre-1980)) is “no conclusion”.
Consider `O.O.O.O.O.O.O.O.O.O=[N+]([O-])[O-].O=[N+]([O-])[O-].O=[N+]([O-])[O-].[Cr+3]`, for which the mutagenic call under setting [2] was “active; positive”.
On to `[S]=[Cd]`, for which the mutagenic call (Species/Cell Type: Human lymphocytes or leukocytes, Assay Type: Chromosome aberrations in vitro, Assay Code: CY7+, Evaluation Type: Evaluation A (Pre-1980)) was “active; positive”. Under “Species/Cell Type: Nonhuman, Assay Code: CCG+, Evaluation Type: Evaluation A (Pre-1980)”, the call is “active; positive”.
Take `CN=C(NC#N)NCCSCc1nc[nH]c1C`: the mutagenic call runs as follows: (Species/Cell Type: Human lymphocytes, Assay Type: Sister-chromatid exchange (SCE) in vitro, Assay Code: SCLT, Evaluation Type: Evaluation B (Post-1980)) “no conclusion”; (Species/Cell Type: Human, Assay Type: Sister-chromatid exchange (SCE) in vitro, Assay Code: SC1T, Evaluation Type: Evaluation B (Post-1980)) “no conclusion”; (Species/Cell Type: Human, Sex: Male, Assay Type: Sperm morphology, Assay Code: SPHT, Evaluation Type: Evaluation A (Pre-1980)) “no conclusion”.
In the case of `BrC(Br)Br`, the mutagenic call (Species/Cell Type: Human lymphocytes, Assay Type: Sister-chromatid exchange (SCE) in vitro, Assay Code: SCL+D, Dose Response: With dose response, Evaluation Type: Evaluation B (Post-1980)) was “active; positive”; the mutagenic call (Species/Cell Type: Human, Assay Type: Sister-chromatid exchange (SCE) in vitro, Assay Code: SC1+D, Dose Response: With dose response, Evaluation Type: Evaluation B (Post-1980)) was “active; positive”; the mutagenic call (Species/Cell Type: Nonhuman, Assay Type: Sister-chromatid exchange (SCE) in vitro, Assay Code: SC2+D, Dose Response: With dose response, Evaluation Type: Evaluation B (Post-1980)) was “active; positive”; the mutagenic call (Species/Cell Type: Nonhuman, Assay Type: Sister-chromatid exchange (SCE) in vivo, Assay Code: SC3+D, Dose Response: With dose response, Evaluation Type: Evaluation B (Post-1980)) is “active; positive”.
Regarding `c1cc2ccc3cccc4ccc(c1)c2c34`, the mutagenic call reads like this: (Species/Cell Type: Chinese hamster lung (V79) cells, Assay Type: Forward gene mutation at the HPRT or ouabain locus, Assay Code: V79-*, Activation: With metabolic activation, Evaluation Type: Evaluation A (Pre-1980)) “inactive; negative”; (Species/Cell Type: Chinese hamster lung (V79) cells, Assay Type: Forward gene mutation, host-mediated assay, Assay Code: HMG-, Evaluation Type: Evaluation A (Pre-1980)) “inactive; negative”; (Species/Cell Type: Fischer rat embryo (RLV/1706) cells, Assay Type: Cell transformation, viral enhanced, Assay Code: CTR-, Evaluation Type: Evaluation A (Pre-1980)) “inactive; negative”; (Species/Cell Type: Human diploid fibroblasts, Assay Type: Unscheduled DNA synthesis (UDS) in vitro, DNA effects, Assay Code: UDH-*, Activation: With metabolic activation, Evaluation Type: Evaluation A (Pre-1980)) “inactive; negative”; (Species/Cell Type: Mammalian polychromatic erythrocytes, Assay Type: Micronucleus test, chromosome aberrations, Assay Code: MNTT, Evaluation Type: Evaluation A (Pre-1980)) “no conclusion”; (Species/Cell Type: Mouse (BALB/c-3T3) cells, Assay Type: Cell transformation, Assay Code: CTB-, Evaluation Type: Evaluation A (Pre-1980)) “inactive; negative”. In addition, the mutagenic call (Species/Cell Type: Mouse embryo (AKR/ME) cells, Assay Type: Cell transformation, Assay Code: CTK-, Evaluation Type: Evaluation A (Pre-1980)) was “inactive; negative”; the mutagenic call (Species/Cell Type: Mouse, Sex: Male, Assay Type: Sperm morphology, Assay Code: SPI-, Evaluation Type: Evaluation A (Pre-1980)) was “inactive; negative”; the mutagenic call (Species/Cell Type: Nonhuman, Assay Type: Chromosome aberrations in vitro, Assay Code: CY&-, Evaluation Type: Evaluation A (Pre-1980)) was “inactive; negative”; the mutagenic call under setting [2] is “active; positive”; the mutagenic call (Species/Cell Type: Nonhuman, Assay Type: Sister-chromatid exchange (SCE) in vitro, Assay Code: SC2T, Evaluation Type: Evaluation A (Pre-1980)) was “no conclusion”; the mutagenic call (Species/Cell Type: Nonhuman, Assay Type: Sister-chromatid exchange (SCE) in vivo, Assay Code: SC3-, Evaluation Type: Evaluation A (Pre-1980)) is “inactive; negative”. Moreover, the mutagenic call runs as follows: (Species/Cell Type: Salmonella typhimurium (one or more of the five standard strains: TA98, TA100, TA1535, TA1537, and TA1538), Assay Type: Histidine reverse gene mutation, Ames assay, Assay Code: SAL-, Evaluation Type: Evaluation A (Pre-1980)) “inactive; negative”; (Species/Cell Type: Syrian hamster embryo (SHE) cells, Assay Type: Cell transformation, clonal assay, Assay Code: CTC-, Evaluation Type: Evaluation A (Pre-1980)) “inactive; negative”; (Species/Cell Type: Tradescantia species, Assay Type: Gene mutation, Assay Code: TRM+D, Dose Response: With dose response, Evaluation Type: Evaluation A (Pre-1980)) “active; positive”. Where the note is “Species/Cell Type: Nonhuman, Assay Code: CCGT, Evaluation Type: Evaluation A (Pre-1980)”, the call is “no conclusion”.
Regarding `Oc1ccc(Cl)cc1Cc1cc(Cl)ccc1O`, the mutagenic call (Species/Cell Type: Mammalian polychromatic erythrocytes, Assay Type: Micronucleus test, chromosome aberrations, Assay Code: MNTT, Evaluation Type: Evaluation B (Post-1980)) is given as “no conclusion”.
Consider `CC(C)C(N)C(=O)O` (stereo not given), for which the mutagenic call (Species/Cell Type: Escherichia coli polA (W3119 vs P3478), Assay Type: Rec-assay, DNA effects (bacterial DNA repair), Assay Code: RE1T, Evaluation Type: Evaluation A (Pre-1980)) was “no conclusion”.
